According to ChEMBL document CHEMBL1155722, “Biological and mechanistic activities of xanthorrizol and 4-(1',5'-dimethylhex-4'-enyl)-2-methylphenol isolated from Iostephane heterophylla” (2001):
Values after ≈ are worked out from the molar mass of the structure shown.

Columns and labels:
Escherichia coli [1] = test: Inhibition of RNA synthesis in Escherichia coli assessed as incorporation of [3H]uridine at 128 ug/mL by LKB Betaplate scintillation counter relative to control; format: functional; parameters: scale not given: the % may be the effect or the level left
Escherichia coli [2] = test: Inhibition of RNA synthesis in Escherichia coli assessed as incorporation of [3H]uridine at 64 ug/mL by LKB Betaplate scintillation counter relative to control; format: functional; parameters: scale not given: the % may be the effect or the level left
Escherichia coli [3] = test: Inhibition of RNA synthesis in Escherichia coli assessed as incorporation of [3H]uridine at 32 ug/mL by LKB Betaplate scintillation counter relative to control; format: functional; parameters: scale not given: the % may be the effect or the level left
Escherichia coli [4] = test: Inhibition of RNA synthesis in Escherichia coli assessed as incorporation of [3H]uridine at 16 ug/mL by LKB Betaplate scintillation counter relative to control; format: functional; parameters: scale not given: the % may be the effect or the level left
Escherichia coli [5] = test: Inhibition of RNA synthesis in Escherichia coli assessed as incorporation of [3H]uridine at 8 ug/mL by LKB Betaplate scintillation counter relative to control; format: functional; parameters: scale not given: the % may be the effect or the level left
Escherichia coli [6] = test: Inhibition of protein synthesis in Escherichia coli assessed as incorporation of [3H]amino acid at 128 ug/mL by LKB Betaplate scintillation counter relative to control; format: functional; parameters: scale not given: the % may be the effect or the level left
Escherichia coli [7] = test: Inhibition of protein synthesis in Escherichia coli assessed as incorporation of [3H]amino acid at 64 ug/mL by LKB Betaplate scintillation counter relative to control; format: functional; parameters: scale not given: the % may be the effect or the level left
Escherichia coli [8] = test: Inhibition of protein synthesis in Escherichia coli assessed as incorporation of [3H]amino acid at 32 ug/mL by LKB Betaplate scintillation counter relative to control; format: functional; parameters: scale not given: the % may be the effect or the level left
Escherichia coli [9] = test: Inhibition of protein synthesis in Escherichia coli assessed as incorporation of [3H]amino acid at 16 ug/mL by LKB Betaplate scintillation counter relative to control; format: functional; parameters: scale not given: the % may be the effect or the level left
Escherichia coli [10] = test: Inhibition of protein synthesis in Escherichia coli assessed as incorporation of [3H]amino acid at 8 ug/mL by LKB Betaplate scintillation counter relative to control; format: functional; parameters: scale not given: the % may be the effect or the level left
Klebsiella pneumoniae = test: Antimicrobial activity against Klebsiella pneumoniae 425 after 18 hrs by microbroth dilution method; format: functional; details: Klebsiella pneumoniae, 425, 18 h
Pseudomonas aeruginosa = test: Antimicrobial activity against Pseudomonas aeruginosa 339 after 18 hrs by microbroth dilution method; format: functional; details: Pseudomonas aeruginosa, 339, 18 h
Candida albicans = test: Antimicrobial activity against Candida albicans 54 after 18 hrs by microbroth dilution method; format: functional; details: Candida albicans, 54, 18 h
Escherichia coli [11] = test: Inhibition of DNA synthesis in Escherichia coli assessed as incorporation of [3H]thymidine at 128 ug/mL by LKB Betaplate scintillation counter relative to control; format: functional; parameters: scale not given: the % may be the effect or the level left
Escherichia coli [12] = test: Inhibition of DNA synthesis in Escherichia coli assessed as incorporation of [3H]thymidine at 64 ug/mL by LKB Betaplate scintillation counter relative to control; format: functional; parameters: scale not given: the % may be the effect or the level left
Escherichia coli [13] = test: Inhibition of DNA synthesis in Escherichia coli assessed as incorporation of [3H]thymidine at 32 ug/mL by LKB Betaplate scintillation counter relative to control; format: functional; parameters: scale not given: the % may be the effect or the level left
Escherichia coli [14] = test: Inhibition of DNA synthesis in Escherichia coli assessed as incorporation of [3H]thymidine at 16 ug/mL by LKB Betaplate scintillation counter relative to control; format: functional; parameters: scale not given: the % may be the effect or the level left
Escherichia coli [15] = test: Inhibition of DNA synthesis in Escherichia coli assessed as incorporation of [3H]thymidine at 8 ug/mL by LKB Betaplate scintillation counter relative to control; format: functional; parameters: scale not given: the % may be the effect or the level left
Staphylococcus aureus [16] = test: Antimicrobial activity against methicillin-sensitive Staphylococcus aureus 375 after 18 hrs by microbroth dilution method; format: functional; details: Staphylococcus aureus, 375, 18 h
Staphylococcus aureus [17] = test: Antimicrobial activity against methicillin-resistant Staphylococcus aureus 310 after 18 hrs by microbroth dilution method; format: functional; details: Staphylococcus aureus, 310, 18 h
Staphylococcus aureus [18] = test: Antimicrobial activity against Staphylococcus aureus ATCC 25923 after 18 hrs by microbroth dilution method; format: functional; details: ATCC 25923, 18 h
Enterococcus faecium [19] = test: Antimicrobial activity against vancomycin-resistant Enterococcus faecium 379 after 18 hrs by microbroth dilution method; format: functional; details: Enterococcus faecium, 379, 18 h
Enterococcus faecium [20] = test: Antimicrobial activity against Enterococcus faecium 436 after 18 hrs by microbroth dilution method; format: functional; details: Enterococcus faecium, 436, 18 h
Bacillus subtilis = test: Antimicrobial activity against Bacillus subtilis 327 after 18 hrs by microbroth dilution method; format: functional; details: Bacillus subtilis, 327, 18 h
Escherichia coli [21] = test: Antimicrobial activity against Escherichia coli 389 after 18 hrs by microbroth dilution method; format: functional; details: Escherichia coli, 389, 18 h
Escherichia coli [22] = test: Antimicrobial activity against Escherichia coli 442 after 18 hrs by microbroth dilution method; format: functional; details: Escherichia coli, 442, 18 h
Escherichia coli [23] = test: Antimicrobial activity against Escherichia coli ATCC 25922 after 18 hrs by microbroth dilution method; format: functional; details: ATCC 25922, 18 h
Staphylococcus aureus [24] = test: Antimicrobial activity against Staphylococcus aureus after 18 hrs by micro-broth dilution method; format: functional
Escherichia coli [25] = test: Inhibition of RNA synthesis in Escherichia coli assessed as incorporation of [3H]uridine at 25 ug/mL by LKB Betaplate scintillation counter relative to control; format: functional; parameters: scale not given: the % may be the effect or the level left
Escherichia coli [26] = test: Inhibition of protein synthesis in Escherichia coli assessed as incorporation of [3H]amino acid at 25 ug/mL by LKB Betaplate scintillation counter relative to control; format: functional; parameters: scale not given: the % may be the effect or the level left
Escherichia coli [27] = test: Inhibition of DNA synthesis in Escherichia coli assessed as incorporation of [3H]thymidine at 25 ug/mL by LKB Betaplate scintillation counter relative to control; format: functional; parameters: scale not given: the % may be the effect or the level left
Escherichia coli [28] = test: Inhibition of RNA synthesis in Escherichia coli assessed as incorporation of [3H]uridine at 0.25 ug/mL by LKB Betaplate scintillation counter relative to control; format: functional; parameters: scale not given: the % may be the effect or the level left
Escherichia coli [29] = test: Inhibition of protein synthesis in Escherichia coli assessed as incorporation of [3H]amino acid at 0.25 ug/mL by LKB Betaplate scintillation counter relative to control; format: functional; parameters: scale not given: the % may be the effect or the level left
Escherichia coli [30] = test: Inhibition of DNA synthesis in Escherichia coli assessed as incorporation of [3H]thymidine at 0.25 ug/mL by LKB Betaplate scintillation counter relative to control; format: functional; parameters: scale not given: the % may be the effect or the level left
Staphylococcus aureus [31] = test: Antimicrobial activity against Staphylococcus aureus infected in CD1 mouse administered single oral dose after 7 days; format: functional; details: 168 h
Staphylococcus aureus [32] = test: Antimicrobial activity against Staphylococcus aureus infected in CD1 mouse administered subcutaneously after 30 mins infection measured after 7 days; format: functional; details: sc
[33] = Ratio of LD50 for CD1 mouse to ED50 for Staphylococcus aureus infected in single subcutaneously dosed CD1 moue

Compound `CC(C)=CCC[C@@H](C)c1ccc(O)c(C)c1` has an Activity (Escherichia coli [1]) of 34.04%, an Activity (Escherichia coli [2]) of 39.08% and an Activity (Escherichia coli [3]) of 50.02%. It also gave an Activity (Escherichia coli [4]) of 60.35%, an Activity (Escherichia coli [5]) of 66.73% and an Activity (Escherichia coli [6]) of 25.34%. The Activity (Escherichia coli [7]) was 39.06%, the Activity (Escherichia coli [8]) was 44.2% and the Activity (Escherichia coli [9]) was 52.28%. For the same compound, the Activity (Escherichia coli [10]) was 68%, the MIC (Klebsiella pneumoniae) was 32 µg/mL (≈ 147 µM) and the MIC (Pseudomonas aeruginosa) was > 128 µg/mL. The MIC (Candida albicans) was 128 µg/mL (≈ 586 µM), the Activity (Escherichia coli [11]) was 30.71% and the Activity (Escherichia coli [12]) was 37.82%. For the same compound, the Activity (Escherichia coli [13]) was 48.24%, the Activity (Escherichia coli [14]) was 63.06% and the Activity (Escherichia coli [15]) was 75.57%. For the same compound, the MIC (Staphylococcus aureus [16]) was 16 µg/mL (≈ 73.3 µM), the MIC (Staphylococcus aureus [17]) was 32 µg/mL (≈ 147 µM) and the MIC (Staphylococcus aureus [18]) was 16 µg/mL (≈ 73.3 µM). It also gave an MIC (Enterococcus faecium [19]) of 16 µg/mL (≈ 73.3 µM), an MIC (Enterococcus faecium [20]) of 16 µg/mL (≈ 73.3 µM) and an MIC (Bacillus subtilis) of 16 µg/mL (≈ 73.3 µM). For the same compound, the MIC (Escherichia coli [21]) was 32 µg/mL (≈ 147 µM), the MIC (Escherichia coli [22]) was > 128 µg/mL and the MIC (Escherichia coli [23]) was > 128 µg/mL.
`C[C@@]12C[C@@]34CC[C@H]5[C@@](C)(CCC[C@]5(C)C(=O)O)[C@@H]3C[C@H]1[C@H]2C4` showed an MIC (Staphylococcus aureus [24]) of 128 µg/mL (≈ 423 µM).
Work on `O=C(N[C@H](CO)[C@H](O)c1ccc([N+](=O)[O-])cc1)C(Cl)Cl` [CHLORAMPHENICOL] yielded an Activity (Escherichia coli [25]) of 85.76%, an Activity (Escherichia coli [26]) of 18.96% and an Activity (Escherichia coli [27]) of 82.98%.
In the case of `CC1(C)S[C@@H]2[C@H](NC(=O)Cc3ccccc3)C(=O)N2[C@H]1C(=O)O` [PENICILLIN G], the MIC (Klebsiella pneumoniae) is reported as 128 µg/mL (≈ 383 µM), the MIC (Pseudomonas aeruginosa) is reported as > 128 µg/mL and the MIC (Candida albicans) is reported as > 128 µg/mL. The MIC (Staphylococcus aureus [16]) was 0.06 µg/mL (≈ 0.179 µM), the MIC (Staphylococcus aureus [17]) was 64 µg/mL (≈ 191 µM) and the MIC (Staphylococcus aureus [18]) was 0.06 µg/mL (≈ 0.179 µM). For the same compound, the MIC (Enterococcus faecium [19]) was 32 µg/mL (≈ 95.7 µM), the MIC (Enterococcus faecium [20]) was 32 µg/mL (≈ 95.7 µM) and the MIC (Bacillus subtilis) was 32 µg/mL (≈ 95.7 µM). It also gave an MIC (Escherichia coli [21]) of 2 µg/mL (≈ 5.98 µM) and an MIC (Escherichia coli [23]) of 128 µg/mL (≈ 383 µM).
For `CO[C@H]1/C=C/O[C@@]2(C)Oc3c(C)c(O)c4c(O)c(c(/C=N/N5CCN(C)CC5)c(O)c4c3C2=O)NC(=O)/C(C)=C\C=C\[C@H](C)[C@H](O)[C@@H](C)[C@@H](O)[C@@H](C)[C@H](OC(C)=O)[C@@H]1C` [RIFAMPIN], the Activity (Escherichia coli [28]) was 1.17%, the Activity (Escherichia coli [29]) was 27.82% and the Activity (Escherichia coli [30]) was 89.56%.
With `CN[C@H](CC(C)C)C(=O)N[C@H]1C(=O)N[C@@H](CC(N)=O)C(=O)N[C@H]2C(=O)N[C@H]3C(=O)N[C@H](C(=O)N[C@H](C(=O)O)c4cc(O)cc(O)c4-c4cc3ccc4O)[C@H](O)c3ccc(c(Cl)c3)Oc3cc2cc(c3O[C@@H]2O[C@H](CO)[C@@H](O)[C@H](O)[C@H]2O[C@H]2C[C@](C)(N)[C@H](O)[C@H](C)O2)Oc2ccc(cc2Cl)[C@H]1O` [VANCOMYCIN] the ED50 (Staphylococcus aureus [31]) was 230 mg/kg, the ED50 (Staphylococcus aureus [32]) was 1 mg/kg and the “Ratio LD50/ED50” value [33] was >1000.
For `CC(C)=CCC[C@@H](C)c1ccc(C)c(O)c1` [XANTHORRIZOL], the Activity (Escherichia coli [1]) was 1.91%, the Activity (Escherichia coli [2]) was 8.72% and the Activity (Escherichia coli [3]) was 48.56%. For the same compound, the Activity (Escherichia coli [4]) was 91.13%, the Activity (Escherichia coli [5]) was 96.87% and the Activity (Escherichia coli [6]) was 17.12%. The Activity (Escherichia coli [7]) was 23.39%, the Activity (Escherichia coli [8]) was 33.57% and the Activity (Escherichia coli [9]) was 96.92%. For the same compound, the Activity (Escherichia coli [10]) was 102.1%, the MIC (Klebsiella pneumoniae) was 32 µg/mL (≈ 147 µM) and the MIC (Pseudomonas aeruginosa) was > 128 µg/mL. The MIC (Candida albicans) was 128 µg/mL (≈ 586 µM), the ED50 (Staphylococcus aureus [32]) was > 32 mg/kg and the Activity (Escherichia coli [11]) was 1.52%. The Activity (Escherichia coli [12]) was 7.03%, the Activity (Escherichia coli [13]) was 35.75% and the Activity (Escherichia coli [14]) was 99.98%. It also gave an Activity (Escherichia coli [15]) of 95.33%, an MIC (Staphylococcus aureus [16]) of 16 µg/mL (≈ 73.3 µM) and an MIC (Staphylococcus aureus [17]) of 32 µg/mL (≈ 147 µM). It also gave an MIC (Staphylococcus aureus [18]) of 16 µg/mL (≈ 73.3 µM), an MIC (Enterococcus faecium [19]) of 16 µg/mL (≈ 73.3 µM) and an MIC (Enterococcus faecium [20]) of 16 µg/mL (≈ 73.3 µM). The MIC (Bacillus subtilis) was 16 µg/mL (≈ 73.3 µM), the MIC (Escherichia coli [21]) was 32 µg/mL (≈ 147 µM) and the MIC (Escherichia coli [22]) was > 128 µg/mL. The MIC (Escherichia coli [23]) was > 128 µg/mL.
